Results reported in patent publication US12492173B2, “Herbicidal substituted N-tetrazolyl aryl carboxamides” (Bayer Aktiengesellschaft, priority 2019, dated 2025).

Key:
Assay type in all cases: in vivo
Amaranthus retroflexus [1] = test: Pre-emergence herbicidal action, AMARE; conditions: dosage 320 g/ha
In short: (§1)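 Pre-emergence soil spray over sandy loam-covered seeds; greenhouse 3 weeks; % visual damage (0% = control, 100% = dead).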

Matricaria inodora [2] = test: Pre-emergence herbicidal action, MATIN; conditions: dosage 320 g/ha
In short: as §1

Veronica persica [3] = test: Pre-emergence herbicidal action, VERPE; conditions: dosage 320 g/ha
In short: as §1

Abutilon theophrasti [4] = test: Post-emergence herbicidal action, ABUTH; parameters: key: % herbicidal action vs untreated; 100 = plants died, 0 = like control; conditions: for herbicidal action ABUTH: Dosage 80 g/ha
In short: (§2)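 Greenhouse post-emergence test: weeds sown in sandy loam were sprayed once at one leaf, 2 to 3 weeks from sowing, with aqueous WP or EC preparations carrying 0.2% wetting agent. Effect is scored visually after about 3 weeks.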

Amaranthus retroflexus [5] = test: Post-emergence herbicidal action, AMARE; parameters: key: % herbicidal action vs untreated; 100 = plants died, 0 = like control; conditions: for herbicidal action AMARE: Dosage 80 g/ha; for Herbicidal action against AMARE: post-emergence, dosage 80 g/ha
In short: as §2

Cyperus esculentus = test: Post-emergence herbicidal action, CYPES; parameters: key: % herbicidal action vs untreated; 100 = plants died, 0 = like control; conditions: Dosage 80 g/ha
Protocol: (§3) [table] 2. Post-Emergence Herbicidal Action Against Harmful Plants Seeds of monocotyledonous and dicotyledonous weed and crop plants are laid out in sandy loam soil in wood-fiber pots, covered with soil and cultivated in a greenhouse under good growth conditions. 2 to 3 weeks after sowing, the test plants are treated at the one-leaf stage. The compounds of the invention, formulated in the form of wettable powders (WP) or as emulsion concentrates (EC), are then sprayed onto the green parts of the plants in the form of an aqueous suspension or emulsion at a water application rate equating to 600 to 800 l/ha, with addition of 0.2% wetting agent. After the test plants have been left to stand in the greenhouse under optimal growth conditions for about 3 weeks, the action of the preparations is assessed visually in comparison to untreated controls (herbicidal action in percent (%): 100% activity=the plants have died, 0% activity=like control plants). […] The tables below illustrate, in an exemplary manner, the post-emergence herbicidal action of the compounds according to the invention, the herbicidal activity being stated in percent. In the experiments that follow, herbicidal action of numerous inventive compounds and the known compounds that are structurally closest from D1 (WO 2012/028579 A1) and D2 (WO 2018/202535 A1) were compared under the above-specified conditions by the pre-emergence and post-emergence method. The example numbers given in the tables relate to the compounds disclosed in the respective documents. In addition to the compounds disclosed in D1 and D2, the following compounds V-1 to V-14 that are encompassed by D1 or D2 but are not compounds specified therein were used in the comparative experiments: • V-1: 2-(methylsulfanyl)-3-(methylsulfinyl)-N-(1-methyl-1H-tetrazol-5-yl)-4-(trifluoromethyl)benzamide • V-2: 2-(methylsulfanyl)-3-(methylsulfonyl)-N-(1-methyl-1H-tetrazol-5-yl)-4-(trifluoromethyl)benzamide • V-3: 2,3-bis(ethylsulfanyl)-N-(1-methyl-1H-tetrazol-5-yl)-4-(trifluoromethyl)benzamide • V-4: 2-chloro-3-(ethylsulfanyl)-N-(1-methyl-1H-tetrazol-5-yl)-4-(trifluoromethyl)benzamide • V-5: 2-chloro-4-iodo-3-(methylsulfanyl)-N-(1-methyl-1H-tetrazol-5-yl)benzamide • V-6: 2-chloro-4-iodo-3-(methylsulfinyl)-N-(1-methyl-1H-tetrazol-5-yl)benzamide • V-7: 2-chloro-4-iodo-3-(methylsulfonyl)-N-(1-methyl-1H-tetrazol-5-yl)benzamide • V-8: 2-bromo-3-(methylsulfanyl)-N-(1-methyl-1H-tetrazol-5-yl)-4-(trifluoromethyl)benzamide • V-9: 2-bromo-3-(methylsulfinyl)-N-(1-methyl-1H-tetrazol-5-yl)-4-(trifluoromethyl)benzamide • V-10: 2-bromo-3-(methylsulfonyl)-N-(1-methyl-1H-tetrazol-5-yl)-4-(trifluoromethyl)benzamide • V-11: 2-bromo-3-(ethylsulfanyl)-N-(1-methyl-1H-tetrazol-5-yl)-4-(trifluoromethyl)benzamide • V-12: 2-bromo-3-(ethylsulfinyl)-N-(1-methyl-1H-tetrazol-5-yl)-4-(trifluoromethyl)benzamide • V-13: 2-bromo-3-(ethylsulfonyl)-N-(1-methyl-1-1H-tetrazol-5-yl)-4-(trifluoromethyl)benzamide • V-14: 2-cyclopropyl-3-(ethylsulfanyl)-N-(1-methyl-1H-tetrazol-5-yl)-4-(trifluoromethyl)benzamide Herbicidal Pre-Emergence Action: […]

Echinochloa crus-galli [6] = test: Post-emergence herbicidal action, ECHCG; parameters: key: % herbicidal action vs untreated; 100 = plants died, 0 = like control; conditions: for herbicidal action ECHCG: Dosage 80 g/ha; for Herbicidal action against ECHCG: post-emergence, dosage 80 g/ha
In short: as §2

Matricaria inodora [7] = test: Post-emergence herbicidal action, MATIN; parameters: key: % herbicidal action vs untreated; 100 = plants died, 0 = like control; conditions: for herbicidal action MATIN: Dosage 80 g/ha
In short: as §2

Pharbitis purpurea [8] = test: Post-emergence herbicidal action, PHBPU; conditions: for herbicidal action PHBPU: Dosage 80 g/ha; for Herbicidal action against PHBPU: post-emergence, dosage 80 g/ha
In short: as §2

Setaria viridis [9] = test: Post-emergence herbicidal action, SETVI; parameters: key: % herbicidal action vs untreated; 100 = plants died, 0 = like control; conditions: Dosage 80 g/ha
In short: as §2

Stellaria media [10] = test: Post-emergence herbicidal action, STEME; parameters: key: % herbicidal action vs untreated; 100 = plants died, 0 = like control; conditions: for herbicidal action STEME: Dosage 80 g/ha; for Herbicidal action against STEME: post-emergence, dosage 80 g/ha
In short: as §2

Veronica persica [11] = test: Post-emergence herbicidal action, VERPE; parameters: key: % herbicidal action vs untreated; 100 = plants died, 0 = like control; conditions: for herbicidal action VERPE: Dosage 80 g/ha
In short: as §2

Viola tricolor [12] = test: Post-emergence herbicidal action, VIOTR; parameters: key: % herbicidal action vs untreated; 100 = plants died, 0 = like control; conditions: for herbicidal action VIOTR: Dosage 80 g/ha; for Herbicidal action against VIOTR: post-emergence, dosage 80 g/ha
In short: as §2

Abutilon theophrasti [13] = test: Pre-emergence herbicidal action, ABUTH; conditions: dosage 320 g/ha
In short: as §1

Echinochloa crus-galli [14] = test: Pre-emergence herbicidal action, ECHCG; conditions: dosage 320 g/ha
In short: as §1

Pharbitis purpurea [15] = test: Pre-emergence herbicidal action, PHBPU
Text: (§4) 1. Pre-Emergence Herbicidal Action Against Harmful Plants Seeds of monocotyledonous and dicotyledonous weed plants and crop plants are laid out in sandy loam soil in wood-fiber pots and covered with soil. The compounds of the invention, formulated in the form of wettable powders (WP) or as emulsion concentrates (EC), are then applied to the surface of the covering soil in the form of an aqueous suspension or emulsion at a water application rate equating to 600 to 800 l/ha, with addition of 0.2% wetting agent. After the treatment, the pots are placed in a greenhouse and kept under good growth conditions for the trial plants. The damage to the test plants is scored visually after a test period of 3 weeks by comparison with untreated controls (herbicidal activity in percent (%): 100% activity=the plants have died, 0% activity=like control plants). […] The tables below illustrate, in an exemplary manner, the […] herbicidal action of the compounds according to the invention, the herbicidal activity being stated in percent. [table] In the experiments that follow, herbicidal action of numerous inventive compounds and the known compounds that are structurally closest from D1 (WO 2012/028579 A1) and D2 (WO 2018/202535 A1) were compared under the above-specified conditions by the pre-emergence and post-emergence method. The example numbers given in the tables relate to the compounds disclosed in the respective documents. In addition to the compounds disclosed in D1 and D2, the following compounds V-1 to V-14 that are encompassed by D1 or D2 but are not compounds specified therein were used in the comparative experiments: • V-1: 2-(methylsulfanyl)-3-(methylsulfinyl)-N-(1-methyl-1H-tetrazol-5-yl)-4-(trifluoromethyl)benzamide • V-2: 2-(methylsulfanyl)-3-(methylsulfonyl)-N-(1-methyl-1H-tetrazol-5-yl)-4-(trifluoromethyl)benzamide • V-3: 2,3-bis(ethylsulfanyl)-N-(1-methyl-1H-tetrazol-5-yl)-4-(trifluoromethyl)benzamide • V-4: 2-chloro-3-(ethylsulfanyl)-N-(1-methyl-1H-tetrazol-5-yl)-4-(trifluoromethyl)benzamide • V-5: 2-chloro-4-iodo-3-(methylsulfanyl)-N-(1-methyl-1H-tetrazol-5-yl)benzamide • V-6: 2-chloro-4-iodo-3-(methylsulfinyl)-N-(1-methyl-1H-tetrazol-5-yl)benzamide • V-7: 2-chloro-4-iodo-3-(methylsulfonyl)-N-(1-methyl-1H-tetrazol-5-yl)benzamide • V-8: 2-bromo-3-(methylsulfanyl)-N-(1-methyl-1H-tetrazol-5-yl)-4-(trifluoromethyl)benzamide • V-9: 2-bromo-3-(methylsulfinyl)-N-(1-methyl-1H-tetrazol-5-yl)-4-(trifluoromethyl)benzamide • V-10: 2-bromo-3-(methylsulfonyl)-N-(1-methyl-1H-tetrazol-5-yl)-4-(trifluoromethyl)benzamide • V-11: 2-bromo-3-(ethylsulfanyl)-N-(1-methyl-1H-tetrazol-5-yl)-4-(trifluoromethyl)benzamide • V-12: 2-bromo-3-(ethylsulfinyl)-N-(1-methyl-1H-tetrazol-5-yl)-4-(trifluoromethyl)benzamide • V-13: 2-bromo-3-(ethylsulfonyl)-N-(1-methyl-1-1H-tetrazol-5-yl)-4-(trifluoromethyl)benzamide • V-14: 2-cyclopropyl-3-(ethylsulfanyl)-N-(1-methyl-1H-tetrazol-5-yl)-4-(trifluoromethyl)benzamide Herbicidal Pre-Emergence Action: […]

Polygonum convolvulus [16] = test: Pre-emergence herbicidal action, POLCO; conditions: dosage 320 g/ha, scored visually after 3 weeks vs untreated controls (100% = plants have died)
Text: as §4

Setaria viridis [17] = test: Pre-emergence herbicidal action, SETVI; conditions: dosage 320 g/ha, scored visually after 3 weeks vs untreated controls (100% = plants have died)
Text: as §4

Stellaria media [18] = test: Pre-emergence herbicidal action, STEME; conditions: dosage 320 g/ha
In short: as §1

Viola tricolor [19] = test: Pre-emergence herbicidal action, VIOTR; conditions: dosage 320 g/ha
In short: as §1

Alopecurus myosuroides = test: Post-emergence herbicidal action, ALOMY; parameters: key: % herbicidal action vs untreated; 100 = plants died, 0 = like control; conditions: Dosage 80 g/ha
Protocol: as §3

Polygonum convolvulus [20] = test: Post-emergence herbicidal action, POLCO; conditions: Dosage 80 g/ha
Protocol: as §3

[21] = scored visually after 3 weeks vs untreated controls (100% = plants have died)

| SMILES | herbicidal action AMARE (Amaranthus retroflexus [1]) | herbicidal action MATIN (Matricaria inodora [2]) | herbicidal action VERPE (Veronica persica [3]) | herbicidal action ABUTH (Abutilon theophrasti [4]) | herbicidal action AMARE (Amaranthus retroflexus [5]) | herbicidal action CYPES (Cyperus esculentus) | herbicidal action ECHCG (Echinochloa crus-galli [6]) | herbicidal action MATIN (Matricaria inodora [7]) | herbicidal action PHBPU (Pharbitis purpurea [8]) | herbicidal action SETVI (Setaria viridis [9]) | herbicidal action STEME (Stellaria media [10]) | herbicidal action VERPE (Veronica persica [11]) | herbicidal action VIOTR (Viola tricolor [12]) | Herbicidal action against AMARE (Amaranthus retroflexus [5]) | Herbicidal action against ECHCG (Echinochloa crus-galli [6]) | Herbicidal action against PHBPU (Pharbitis purpurea [8]) | Herbicidal action against STEME (Stellaria media [10]) | Herbicidal action against VIOTR (Viola tricolor [12]) | herbicidal action ECHCG (Echinochloa crus-galli [14]) | herbicidal action STEME (Stellaria media [18]) | also measured |
| --- | --- | --- | --- | --- | --- | --- | --- | --- | --- | --- | --- | --- | --- | --- | --- | --- | --- | --- | --- | --- | --- |
| Cc1c(C(=O)Nc2nnnn2C)ccc(S(C)(=O)=O)c1CS(C)(=O)=O [Example 1-39] | 100% | 100% | 90% | 90 | 90 | 80 | 80 | 90 | 80 | 90 | 80 | 90 | 90 | – | – | – | – | – | – | – | – |
| Cn1nnnc1NC(=O)c1ccc(S(C)(=O)=O)c(CS(C)(=O)=O)c1Cl [Example 1-280] | – | – | – | – | – | – | – | – | – | – | – | – | – | 90 | 90 | 90 | 100 | 90 | – | – | herbicidal activity ABUTH (Abutilon theophrasti [13]; [21]): 90%; herbicidal activity AMARE (Amaranthus retroflexus [1]; [21]): 100%; herbicidal activity ECHCG (Echinochloa crus-galli [14]; [21]): 100%; herbicidal activity MATIN (Matricaria inodora [2]; [21]): 90%; herbicidal activity PHBPU (Pharbitis purpurea [15]; dosage 320 g/ha, scored visually after 3 weeks vs untreated controls (100% = plants have died)): 80%; herbicidal activity POLCO (Polygonum convolvulus [16]): 80%; herbicidal activity SETVI (Setaria viridis [17]): 80%; herbicidal activity STEME (Stellaria media [18]; [21]): 90%; herbicidal activity VERPE (Veronica persica [3]; [21]): 100%; herbicidal activity VIOTR (Viola tricolor [19]; [21]): 90% |
| CCSCc1c(C(F)(F)F)ccc(C(=O)Nc2nnnn2C)c1C1CC1 [Example 1-517] | – | – | – | – | – | – | – | – | – | – | – | – | – | – | – | – | – | – | – | – | Herbicidal action against PHBPU (Pharbitis purpurea [15]; comparative experiment, 20 g of a.i./ha): 60 |
| CCn1nnnc1NC(=O)c1ccc(S(C)(=O)=O)c(CSC)c1C [Example 2-37] | 100% | – | 100% | 80 | 90 | 80 | 100 | 80 | 80 | 100 | 100 | 100 | 100 | – | – | – | – | – | 90% | 90% | herbicidal action ALOMY (Alopecurus myosuroides): 80 |
| CCn1nnnc1NC(=O)c1ccc(C)c(C[S+](C)[O-])c1Cl (stereo not drawn) [Example 2-288] | 100% | 90% | 100% | 90 | 100 | – | 90 | 90 | 90 | 90 | 100 | 100 | 80 | – | – | – | – | – | 100% | 90% | herbicidal action ALOMY (Alopecurus myosuroides): 80; herbicidal action POLCO (Polygonum convolvulus [20]): 90 |
| CCCn1nnnc1NC(=O)c1ccc(C(F)(F)F)c(CS(C)(=O)=O)c1S(C)(=O)=O [Example 3-199] | 90% | 100% | 100% | – | – | – | – | – | – | – | – | – | – | 80 | 80 | 90 | 80 | 90 | – | 80% | herbicidal action ABUTH (Abutilon theophrasti [13]): 100%; herbicidal action PHBPU (Pharbitis purpurea [15]; dosage 320 g/ha): 80%; herbicidal action VIOTR (Viola tricolor [19]): 100%; Herbicidal action against ABUTH (Abutilon theophrasti [4]; post-emergence, dosage 80 g/ha): 90; Herbicidal action against MATIN (Matricaria inodora [7]; post-emergence, dosage 80 g/ha): 80; Herbicidal action against VERPE (Veronica persica [11]; post-emergence, dosage 80 g/ha): 100 |
